The results in this text go back to US12059425B2, “Heterocyclic compounds and uses thereof” (Kumquat Biosciences Inc., priority 2022, dated 2024).

One assay concerns the target T1, K-Ras G12D (Homo sapiens, UniProt P01116, G12D).
T1 construct: made in house; host or cells: E. coli, e.g. BL21 (DE3)
Put plainly: PPI-HTRF assay, K-Ras G12D / SOS1 interaction. The conditions noted are these: HTRF, K-Ras G12D; read-out: PPI-HTRF-5 nM (K-Ras G12D IC50). The assay is classed as biochemical. The method in brief: (§1)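 Disruption of K-Ras–SOS1 binding is followed by FRET between a europium-labelled anti-GST antibody on GST-K-Ras and an XL665-labelled anti-His antibody on His-hSOS1. Protein concentrations are set in the same molar range as the IC50s measured. The 665/620 nm ratio gives IC50, with duplicates tested at 10, 2.5, 0.63, 0.16, 0.04 and 0.01 μM.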
Background: In TR-FRET formats the signal depends on donor and acceptor labels being close together.

The next assay concerns the target T2, K-Ras G12S (Homo sapiens, UniProt P01116, G12S).
T2 construct: made in house; host or cells: E. coli, e.g. BL21 (DE3)
The assay can be described thus: PPI-HTRF assay, K-Ras G12S / SOS1 interaction. The assay is classed as biochemical. The conditions noted are these: read-out: PPI-HTRF-5 nM (K-Ras G12S IC50). The procedure, abridged: as §1

Another assay deals with T3, K-Ras G12V (Homo sapiens, UniProt P01116, G12V).
T3 construct: made in house; host or cells: E. coli, e.g. BL21 (DE3)
The assay can be described thus: PPI-HTRF assay, K-Ras G12V / SOS1 interaction. In kind it is biochemical. Particulars: HTRF, K-Ras G12V; read-out: PPI-HTRF-5 nM (K-Ras G12V IC50). The procedure, abridged: as §1

For another assay, the target named is T4, wildtype K-Ras (Homo sapiens, UniProt P01116).
T4 construct: made in house; host or cells: E. coli, e.g. BL21 (DE3)
The assay can be described thus: PPI-HTRF assay, wildtype K-Ras / SOS1 interaction. Particulars: HTRF, K-Ras wt; read-out: PPI-HTRF-5 nM (K-Ras wt IC50). The assay is classed as biochemical. The method in brief:
as §1

The next assay relates to GP2D cells. Put plainly: Ras cellular assay, cell proliferation GP2D. The assay is classed as cell-based. The method in brief: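 GP2D cells (G12D Ras mutant) seeded (e.g., 800/well) and treated the next day with a dilution series (e.g., 9-point, 3-fold). After approximately 5 days, viability measured by CellTiter-Glo luminescence; IC50 from four-parameter fit.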
The next assay has as its system A549 cells. The assay can be described thus: Ras cellular assay, cell proliferation A549. In kind it is cell-based. Particulars: Homo sapiens. The method in brief: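 G12S-mutant A549 cells (800/well) in RPMI-1640 plus 10% heat-inactivated FBS, standard or ultra-low attachment 384-well plates, dosed the day after plating with a 10-point 3-fold series. Viability by CellTiter-Glo luminescence about 6 days later; IC50 from four-parameter fit.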

A further assay deals with SW620 cells. Put plainly: Ras cellular assay, cell proliferation SW620. Particulars: Homo sapiens, SW-620. In kind it is cell-based. The source says: For example, this assay can be also used to assess selective growth inhibition of a mutant Ras protein relative to a wildtype, or relative to a different mutant Ras protein.

T1 sequence (P01116 1-188 isoform P01116-2 G12D): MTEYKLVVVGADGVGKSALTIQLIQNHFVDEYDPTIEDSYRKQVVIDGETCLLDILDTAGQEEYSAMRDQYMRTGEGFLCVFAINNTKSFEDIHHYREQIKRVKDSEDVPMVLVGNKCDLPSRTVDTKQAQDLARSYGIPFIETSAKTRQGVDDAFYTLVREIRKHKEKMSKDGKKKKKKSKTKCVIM
T4 sequence (P01116 1-188 isoform P01116-2): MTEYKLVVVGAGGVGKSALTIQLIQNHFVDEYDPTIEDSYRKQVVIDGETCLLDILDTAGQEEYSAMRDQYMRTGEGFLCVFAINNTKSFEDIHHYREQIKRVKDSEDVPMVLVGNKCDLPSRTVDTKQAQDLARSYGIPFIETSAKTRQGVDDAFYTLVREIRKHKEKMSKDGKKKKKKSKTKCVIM
T2 sequence (P01116 1-188 isoform P01116-2 G12S): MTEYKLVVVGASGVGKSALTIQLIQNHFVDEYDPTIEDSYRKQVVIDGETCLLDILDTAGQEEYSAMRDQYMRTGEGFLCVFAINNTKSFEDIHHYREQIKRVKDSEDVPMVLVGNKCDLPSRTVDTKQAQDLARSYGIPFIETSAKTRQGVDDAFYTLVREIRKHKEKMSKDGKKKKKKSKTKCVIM
T3 sequence (P01116 1-188 isoform P01116-2 G12V): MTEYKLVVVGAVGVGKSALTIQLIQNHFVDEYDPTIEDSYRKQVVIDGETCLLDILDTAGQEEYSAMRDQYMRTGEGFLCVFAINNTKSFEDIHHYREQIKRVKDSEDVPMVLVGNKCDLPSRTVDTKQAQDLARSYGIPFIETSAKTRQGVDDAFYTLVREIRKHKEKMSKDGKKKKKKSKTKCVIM

By IC50 is commonly meant the point on the concentration scale where inhibition reaches its midpoint. Consider `CN1c2nc(OC[C@@]34CCCN3C[C@H](F)C4)nc3c(F)c(-c4ccc(F)c5sc(N)c(C#N)c45)c(Cl)c(c23)OCC2CN(C(=O)[C@@H]3N[C@H]3C3CC3)CC21` (stereo partly drawn) [compound 146, 2-amino-4-(6-chloro-10-((2R,3S)-3-cyclopropylaziridine-2-carbonyl)-4-fluoro-2-(((2R,7aS)-2-fluorotetrahydro-1H-pyrrolizin-7a(5H)-yl)methoxy)-12-methyl-8a,9,10,11,11a,12-hexahydro-8H-pyrrolo[3′,4′:6,7][1,5]oxazocino[4,3,2-de]quinazolin-5-yl)-7-fluorobenzo[b]thiophene-3-carbonitrile], for which the IC50 at K-Ras G12D is less than 5 µM; on K-Ras G12S, less than 5 µM; on K-Ras G12V it was less than 5 µM; on wildtype K-Ras, less than 5 µM; in the assay on GP2D cells it was less than 5 µM; in the assay on A549 cells, greater than 5 µM. The same compound showed an IC50 in the assay with SW620 cells of less than 5 µM.

In the case of `N#Cc1c(N)sc2c(F)ccc(-c3c(Cl)c4c5c(nc(OC[C@@]67CCCN6C[C@H](F)C7)nc5c3F)N3CCN(C(=O)C(F)F)CCC3CO4)c12` (stereo partly drawn) [compound 149, 2-amino-4-(6-chloro-11-(2,2-difluoroacetyl)-4-fluoro-2-(((2R,7aS)-2-fluorotetrahydro-1H-pyrrolizin-7a(5H)-yl)methoxy)-8a,9,10,11,12,13-hexahydro-8H-[1,4]diazepino[7′,1′:3,4][1,4]oxazepino [5,6,7-de]quinazolin-5-yl)-7-fluorobenzo[b]thiophene-3-carbonitrile], the IC50 on K-Ras G12D, on K-Ras G12S, on K-Ras G12V, on wildtype K-Ras, with GP2D cells and with A549 cells was less than 5 µM each time. Also, the IC50 in the assay with SW620 cells is less than 5 µM.

Regarding `N#Cc1c(N)sc2c(F)ccc(-c3c(Cl)c4c5c(nc(OCC67CCCN6C[C@H](F)C7)nc5c3F)N3CC(C#N)CCC3CO4)c12` (stereo partly drawn) [compound 150, 5-(2-amino-3-cyano-7-fluorobenzo[b]thiophen-4-yl)-6-chloro-4-fluoro-2-(((2R)-2-fluorotetrahydro-1H-pyrrolizin-7a(5H)-yl)methoxy)-8,8a,9,10,11,12-hexahydropyrido[2′,1′:3,4][1,4]oxazepino [5,6,7-de]quinazoline-11-carbonitrile], the IC50 at K-Ras G12D, at K-Ras G12S, on K-Ras G12V, at wildtype K-Ras, in the assay on GP2D cells and in the assay on A549 cells was less than 5 µM throughout. In the assay on SW620 cells, the concentration for half-maximal inhibition (IC50) is less than 5 µM.

With `N#Cc1c(N)sc2c(F)ccc(-c3c(Cl)c4c5c(nc(OC[C@@]67CCCN6C[C@H](F)C7)nc5c3F)N3CCCNCC3CO4)c12` (stereo partly drawn) [compound 151, 2-amino-4-(12-chloro-10-fluoro-8-(((2R,7aS)-2-fluorotetrahydro-1H-pyrrolizin-7a(5H)-yl)methoxy)-2,3,4,5,14,14a-hexahydro-1H-[1,4]diazepino[2′,1′:3,4][1,4]oxazepino [5,6,7-de]quinazolin-11-yl)-7-fluorobenzo[b]thiophene-3-carbonitrile], the half-maximal inhibitory concentration (IC50) on K-Ras G12D, at K-Ras G12S, on K-Ras G12V, at wildtype K-Ras, in the assay with GP2D cells and in the assay with A549 cells was less than 5 µM throughout. Moreover, the IC50 in the assay on SW620 cells is less than 5 µM.

As to `N#Cc1c(N)sc2c(F)ccc(-c3c(Cl)c4c5c(nc(OC[C@@]67CCCN6C[C@H](F)C7)nc5c3F)N3CCN(C=O)CCC3CO4)c12` (stereo partly drawn) [compound 152, 2-amino-4-(12-chloro-10-fluoro-8-(((2R,7aS)-2-fluorotetrahydro-1H-pyrrolizin-7a(5H)-yl)methoxy)-3-formyl-2,3,4,5,14,14a-hexahydro-1H-[1,4]diazepino[7′,1′:3,4][1,4]oxazepino[5,6,7-de]quinazolin-11-yl)-7-fluorobenzo[b]thiophene-3-carbonitrile], the IC50 at K-Ras G12D, on K-Ras G12S, at K-Ras G12V, at wildtype K-Ras, in the assay on GP2D cells and in the assay on A549 cells was less than 5 µM in each case. Moreover, in the assay with SW620 cells, the concentration for half-maximal inhibition (IC50) is less than 5 µM.

For `N#Cc1c(N)sc2c(F)ccc(-c3c(Cl)c4c5c(nc(OC[C@@]67CCCN6C[C@H](F)C7)nc5c3F)N3CC(COC(F)F)CCC3CO4)c12` (stereo partly drawn) [compound 154, 2-amino-4-(6-chloro-11-((difluoromethoxy)methyl)-4-fluoro-2-(((2R,7aS)-2-fluorotetrahydro-1H-pyrrolizin-7a(5H)-yl)methoxy)-8,8a,9,10,11,12-hexahydropyrido[2′,1′:3,4][1,4]oxazepino [5,6,7-de]quinazolin-5-yl)-7-fluorobenzo[b]thiophene-3-carbonitrile], the IC50 on K-Ras G12D, on K-Ras G12S, at K-Ras G12V, at wildtype K-Ras, in the assay with GP2D cells and in the assay with A549 cells was less than 5 µM in each case. The IC50 in the assay with SW620 cells is less than 5 µM.

As to `N#Cc1c(N)sc2c(F)ccc(-c3c(Cl)c4c5c(nc(OC[C@@]67CCCN6C[C@H](F)C7)nc5c3F)N3CC5(CCCC3CO4)CN(C(=O)C3CC3(F)F)C5)c12` (stereo partly drawn) [compound 155, 2-amino-4-(3-chloro-1′-(2,2-difluorocyclopropane-1-carbonyl)-1-fluoro-13-(((2R,7aS)-2-fluorotetrahydro-1H-pyrrolizin-7a(5H)-yl)methoxy)-5a,6,7,8-tetrahydro-5H,10H-spiro[azepino[2′,1′:3,4][1,4]oxazepino[5,6,7-de]quinazoline-9,3′-azetidin]-2-yl)-7-fluorobenzo[b]thiophene-3-carbonitrile], the IC50 at K-Ras G12D, at K-Ras G12S, on K-Ras G12V, on wildtype K-Ras, in the assay with GP2D cells and with A549 cells was less than 5 µM throughout. In the assay with SW620 cells, the IC50 is less than 5 µM.

As to `N#Cc1c(N)sc2c(F)ccc(-c3c(Cl)c4c5c(nc(OC[C@@]67CCCN6C[C@H](F)C7)nc5c3F)N3CCCC(O)C3CO4)c12` (stereo partly drawn) [compound 157, 2-amino-4-(6-chloro-4-fluoro-2-(((2R,7aS)-2-fluorotetrahydro-1H-pyrrolizin-7a(5H)-yl)methoxy)-9-hydroxy-8,8a,9,10,11,12-hexahydropyrido[2′,1′:3,4][1,4]oxazepino [5,6,7-de]quinazolin-5-yl)-7-fluorobenzo[b]thiophene-3-carbonitrile], the IC50 on K-Ras G12D, on K-Ras G12S, at K-Ras G12V, on wildtype K-Ras, in the assay on GP2D cells and with A549 cells was less than 5 µM in each case. Besides, the IC50 with SW620 cells was less than 5 µM.

For the compound `N#Cc1c(N)sc2c(F)ccc(-c3c(Cl)c4c5c(nc(OCC67CCCN6C[C@H](F)C7)nc5c3F)N3CCC[C@H]3CO4)c12` (stereo partly drawn) [compound 159, 2-amino-4-((12aS)-10-chloro-8-fluoro-6-(((2R)-2-fluorotetrahydro-1H-pyrrolizin-7a(5H)-yl)methoxy)-2,3,12,12a-tetrahydro-1H-pyrrolo[2′,1′:3,4][1,4]oxazepino[5,6,7-de]quinazolin-9-yl)-7-fluorobenzo[b]thiophene-3-carbonitrile], the 50% inhibitory concentration (IC50) on K-Ras G12D, at K-Ras G12S, on K-Ras G12V, on wildtype K-Ras, in the assay with GP2D cells and in the assay on A549 cells was less than 5 µM each time. In addition, in the assay with SW620 cells, the IC50 is less than 5 µM.
